Assay results taken from ChEMBL document CHEMBL4354872, “Use of Non-Natural Amino Acids for the Design and Synthesis of a Selective, Cell-Permeable MALT1 Activity-Based Probe” (J Med Chem, 2020).
Activity calls are given as the source filed them. The calls are words filed in the database; no cut-off is given here.

How the values were obtained:
[1] = target: T1, Mucosa-associated lymphoid tissue lymphoma translocation protein 1 (Homo sapiens) (UniProt Q9UDY8); experiment: Inhibition of full length wild type human N-terminal GST-tagged MALT1 catalytic domain (325 to 760 residues) expressed in Escherichia coli BL21 (DE3) assessed as increase in fluorescence at 0.5 uL using Ac-LRSR-AMC as substrate preincubated for 20 mins followed by substrate addition measured after 60 to 120 mins by fluorescence plate reader assay
T1 sequence (whole entry): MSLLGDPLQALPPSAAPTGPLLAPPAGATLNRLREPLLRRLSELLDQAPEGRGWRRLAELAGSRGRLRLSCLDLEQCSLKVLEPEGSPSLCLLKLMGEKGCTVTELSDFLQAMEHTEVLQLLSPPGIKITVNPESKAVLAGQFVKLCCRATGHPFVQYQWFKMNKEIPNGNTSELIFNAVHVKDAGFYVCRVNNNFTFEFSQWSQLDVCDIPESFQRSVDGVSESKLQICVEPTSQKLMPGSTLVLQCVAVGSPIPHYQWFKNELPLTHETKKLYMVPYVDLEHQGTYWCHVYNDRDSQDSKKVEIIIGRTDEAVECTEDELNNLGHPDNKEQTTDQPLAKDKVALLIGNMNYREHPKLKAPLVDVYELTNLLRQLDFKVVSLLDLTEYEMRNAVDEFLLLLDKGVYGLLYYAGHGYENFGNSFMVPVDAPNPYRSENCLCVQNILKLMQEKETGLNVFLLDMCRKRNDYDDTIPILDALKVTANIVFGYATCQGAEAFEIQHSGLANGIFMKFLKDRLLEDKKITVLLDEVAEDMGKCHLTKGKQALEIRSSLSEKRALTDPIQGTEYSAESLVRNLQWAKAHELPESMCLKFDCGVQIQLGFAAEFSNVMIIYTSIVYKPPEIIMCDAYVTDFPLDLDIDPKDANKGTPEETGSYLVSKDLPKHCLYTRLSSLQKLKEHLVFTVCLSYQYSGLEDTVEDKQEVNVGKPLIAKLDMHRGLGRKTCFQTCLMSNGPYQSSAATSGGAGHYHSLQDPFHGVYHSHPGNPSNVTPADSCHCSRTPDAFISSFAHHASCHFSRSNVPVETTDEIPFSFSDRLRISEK

[2] = target: T2, Cathepsin B (Homo sapiens, UniProt P07858); experiment: Inhibition of recombinant human cathepsin B expressed in Escherichia coli BL21 (DE3) using zRR-AMC as substrate measured after 2 hrs by fluorescence plate reader assay
[3] = target: T2, Cathepsin B; experiment: Inhibition of recombinant human cathepsin B expressed in Escherichia coli BL21 (DE3) assessed as increase in fluorescence at 0.5 uL using zRR-AMC as substrate measured after 60 to 80 mins by fluorescence plate reader assay
[4] = target: T1, Mucosa-associated lymphoid tissue lymphoma translocation protein 1 (Homo sapiens); experiment: Binding affinity to MALT1 in human Jurkat cells assessed as ABP labeling of protein at 3 uM pretreated with compound for 3 hrs followed by PMA/ionomycin stimulation for 30 mins by laser imaging analysis; type: cell-based
[5] = target: T1, Mucosa-associated lymphoid tissue lymphoma translocation protein 1 (Homo sapiens); experiment: Inhibition of MALT1 in human HBL1 assessed as assessed as reduction in Relb substrate cleavage at 3 to 30 uM after 5 hrs in presence of proteasome inhibitor by Western blot analysis
[6] = organism: Homo sapiens; experiment: Covalent binding affinity to MALT1 C453/A mutant (unknown origin) assessed as PMA/ionomycin stimulated ABP labeling of MALT1 by measuring cleavage of CYLD substrate using CYLD as substrate at 3 uM pretreated with PMA/ionomycin for 30 mins followed by compound treatment and further incubated for 3 hrs by Western blot analysis
[7] = target: T1, Mucosa-associated lymphoid tissue lymphoma translocation protein 1 (Homo sapiens); experiment: Inhibition of […] wild type human N-terminal GST-tagged MALT1 catalytic domain (325 to 760 residues) expressed in Escherichia coli BL21 (DE3) assessed as inactivation rate constant using Ac-LVPipR-ACC as substrate measured after 2 hrs by microplate reader assay
[8] = target: T2, Cathepsin B; experiment: Binding affinity to cathepsin B in human Jurkat cells assessed as ABP labeling of protein at 3 uM pretreated with compound for 3 hrs followed by PMA/ionomycin stimulation for 30 mins by laser imaging analysis; type: cell-based
[9] = target: T2, Cathepsin B; experiment: Inhibition of recombinant human cathepsin B expressed in Escherichia coli BL21 (DE3) assessed as inactivation rate constant using zRR-AMC as substrate measured after 2 hrs by fluorescence plate reader assay
[10] = target: T1, Mucosa-associated lymphoid tissue lymphoma translocation protein 1 (Homo sapiens); experiment: Covalent binding affinity to MALT1 in wild type human Jurkat cell lysate assessed as PMA/ionomycin stimulated ABP labeling by protein-compound adduct formation at 3 uM pretreated with PMA/ionomycin for 30 mins followed by compound treatment after 3 hrs by laser imaging analysis; type: subcellular
[11] = target: T3, Mucosa-associated lymphoid tissue lymphoma translocation protein 1 (Homo sapiens, UniProt Q9UDY8); experiment: Inhibition of […] wild type human N-terminal GST-tagged MALT1 catalytic domain (325 to 760 residues) expressed in Escherichia coli BL21 (DE3) using Ac-LVPipR-ACC as substrate measured after 2 hrs by microplate reader assay
T3 sequence (Q9UDY8 whole entry): T1 sequence (whole entry)

[12] = target: T2, Cathepsin B; experiment: Covalent binding affinity to cathepsin B in wild type human Jurkat cell lysate assessed as ABP labeling by protein-compound adduct formation at 3 uM after 3 hrs by laser imaging analysis; type: subcellular
[13] = target: T1, Mucosa-associated lymphoid tissue lymphoma translocation protein 1 (Homo sapiens); experiment: Covalent binding affinity to Streptag2-tagged MALT1 stably reconstituted in human knockout Jurkat cells assessed as PMA/ionomycin stimulated ABP labeling of MALT1 by measuring cleavage of CYLD substrate using CYLD as substrate at 3 uM pretreated for PMA/ionomycin with 30 mins followed by compound treatment and further incubated for 3 hrs by Western blot analysis; type: cell-based
[14] = target: T1, Mucosa-associated lymphoid tissue lymphoma translocation protein 1 (Homo sapiens); experiment: (§1) Competitive binding affinity to MALT1 in wild type human Jurkat cell lysate assessed as PMA/ionomycin stimulated ABP labeling by protein-compound adduct formation at 3 uM pretreated with 25 uM of MALT1 inhibitor z-VRPR-FMK for 2 hrs followed by PMA/ionomycin stimulation for 30 mins and subsequent compound addition measured after 3 hrs by Western blot analysis; type: subcellular
[15] = target: T2, Cathepsin B; experiment: as §1, with “to cathepsin B” for “to MALT1”, “with 5” for “with 25”, “inhibitor CA-074ME” for “inhibitor z-VRPR-FMK”; type: subcellular
[16] = target: T1, Mucosa-associated lymphoid tissue lymphoma translocation protein 1 (Homo sapiens); experiment: as §1, with “s-mepazine” for “z-VRPR-FMK”; type: subcellular
[17] = target: T2, Cathepsin B; experiment: as §1, with “to cathepsin B” for “to MALT1”; type: subcellular
[18] = target: T1, Mucosa-associated lymphoid tissue lymphoma translocation protein 1 (Homo sapiens); experiment: Inhibition of MALT1 in human HBL1 assessed as assessed as reduction in Relb substrate cleavage after 5 hrs in presence of proteasome inhibitor by Western blot analysis
[19] = target: T2, Cathepsin B; experiment: Inhibition of recombinant human cathepsin B expressed in Escherichia coli BL21 (DE3) assessed as increase in fluorescence at 0.5 uL using zRR-AMC as substrate measured after 60 to 80 mins by fluorescence plate reader assay relative to Z-VRPR-FMK

**Q.** How did the inhibition [1] turn out when `CC1=CC(C)=[N+]2C1=Cc1ccc(CCC(=O)N[C@@H](CC(C)C)C(=O)N[C@@H](CCCNC(=N)N)C(=O)N[C@@H](CO)C(=O)N[C@@H](CCCNC(=N)N)C(=O)COC(=O)c3c(C)cccc3C)n1[B-]2(F)F` was run?
**A.** Active

**Q.** What about the Ki [2] of the same compound?
**A.** 630 nM

**Q.** What about the inhibition [3] of the same compound?
**A.** Active

**Q.** And the Activity [4]?
**A.** Active

**Q.** What about the inhibition [5] of the same compound?
**A.** inactive

**Q.** And the Activity [6]?
**A.** inactive

**Q.** What about the Kinact [7] of the same compound?
**A.** 2 ×10⁻³ /s

**Q.** What about the Activity [8] of the same compound?
**A.** Active

**Q.** And the Kinact [9]?
**A.** 9.6 ×10⁻³ /s

**Q.** And the Activity [10]?
**A.** Active

**Q.** And the Ki [11]?
**A.** 340 nM

**Q.** What about the Activity [12] of the same compound?
**A.** Active

**Q.** And the Activity [13]?
**A.** Active

**Q.** For `CC1=CC(C)=[N+]2C1=C(CCCc1cn(CCCCCC(=O)N[C@@H](CC(C)C)C(=O)N[C@H](C(=O)N[C@@H](CO)C(=O)N[C@@H](CCCNC(=N)N)C(=O)COC(=O)c3c(C)cccc3C)C(C)C)nn1)c1c(C)cc(C)n1[B-]2(F)F`, which inhibition [1] is on record?
**A.** Active

**Q.** And the Ki [2]?
**A.** 210 nM

**Q.** And the inhibition [3]?
**A.** Active

**Q.** What about the Activity [4] of the same compound?
**A.** Active

**Q.** What about the Activity [6] of the same compound?
**A.** inactive

**Q.** What about the Kinact [7] of the same compound?
**A.** 1.1 ×10⁻³ /s

**Q.** What about the Activity [14] of the same compound?
**A.** inactive

**Q.** And the Activity [15]?
**A.** inactive

**Q.** And the Activity [8]?
**A.** Active

**Q.** What about the Kinact [9] of the same compound?
**A.** 4.1 ×10⁻³ /s

**Q.** What about the Activity [10] of the same compound?
**A.** Active

**Q.** And the Activity [16]?
**A.** inactive

**Q.** What about the Ki [11] of the same compound?
**A.** 210 nM

**Q.** And the Activity [17]?
**A.** inactive

**Q.** What about the Activity [12] of the same compound?
**A.** Active

**Q.** And the inhibition [18]?
**A.** Dose-dependent effect

**Q.** What about the Activity [13] of the same compound?
**A.** Active

**Q.** Which results are given for `CC(C)[C@H](NC(=O)OCc1ccccc1)C(=O)N[C@@H](CCCNC(=N)N)C(=O)N1CCC[C@H]1C(=O)N[C@@H](CCCNC(=N)N)C(=O)CF`?
**A.** inhibition [1]: Active; inhibition [3]: Active

**Q.** How did the inhibition [1] turn out when `CC1=CC(C)=[N+]2C1=C(CCCc1cn(CCCCCC(=O)N[C@@H](CC(C)C)C(=O)N[C@H](C(=O)N3CCCC[C@H]3C(=O)N[C@@H](CCCNC(=N)N)C(=O)COC(=O)c3c(C)cccc3C)C(C)C)nn1)c1c(C)cc(C)n1[B-]2(F)F` was run?
**A.** Active

**Q.** And the Ki [2]?
**A.** > 10000 nM

**Q.** And the inhibition [3]?
**A.** Active

**Q.** What about the Activity [4] of the same compound?
**A.** inactive

**Q.** And the Activity [6]?
**A.** inactive

**Q.** What about the fold change (FC) [19] of the same compound?
**A.** 50

**Q.** And the Kinact [7]?
**A.** 1.7 ×10⁻³ /s

**Q.** What about the Activity [8] of the same compound?
**A.** inactive

**Q.** What about the Activity [10] of the same compound?
**A.** Active

**Q.** And the Ki [11]?
**A.** 170 nM

**Q.** What about the Activity [12] of the same compound?
**A.** inactive

**Q.** What about the inhibition [18] of the same compound?
**A.** Dose-dependent effect

**Q.** And the Activity [13]?
**A.** Active
